Assay results from US4206215A, “Antimicrobial bis-[4-(substituted-amino)-1-pyridinium]alkanes” (Sterling Drug Inc., priority 1977, dated 1980).
Read-outs that look alike come from different tables or passages of the source.

Key:
[1] = tested on: S. Aureus Smith; assay: In vitro antibacterial activity, MIC (modified Autotiter method); format: cell-based, Staphylococcus aureus; settings: 18-20 hours at 37° C.
Summary of the method: (§1)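 MIC by modified Autotiter twofold broth dilution from a 1,000 mcg./ml. compound solution in inoculated semisynthetic glucose medium. Final drug concentrations ranged from 500 to 0.06 mcg./ml.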

[2] = tested on: E. coli 100/B22; assay: as above; format: cell-based, Escherichia coli; settings: for MIC E. coli 100/B22: 18-20 hours at 37° C.
Summary of the method: as §1

[3] = tested on: E. coli AB1932-1; assay: as above; format: cell-based, Escherichia coli; settings: 18-20 hours at 37° C.
Summary of the method: as §1

[4] = tested on: E. coli Vogel; assay: as above; format: cell-based, Escherichia coli; settings: 18-20 hours at 37° C.
Summary of the method: as §1

[5] = tested on: K. pneum. 39645; assay: as above; format: cell-based, Klebsiella pneumoniae; settings: 18-20 hours at 37° C.
Summary of the method: as §1

[6] = tested on: P. mirab. MGH-1; assay: as above; format: cell-based, Proteus mirabilis; settings: 18-20 hours at 37° C.
Summary of the method: as §1

[7] = tested on: Ps. aerug. MGH-2; assay: as above; format: cell-based, Pseudomonas aeruginosa; settings: 18-20 hours at 37° C.
Summary of the method: as §1

[8] = tested on: S. pyogen. C203; assay: as above; format: cell-based, Streptococcus pyogenes; settings: 18-20 hours at 37° C.
Summary of the method: as §1

[9] = tested on: A. niger 16404; assay: In vitro antifungal activity, MIC (modified Autotiter method); format: cell-based, Aspergillus niger; settings: 18-20 hours at 37° C.
Summary of the method: as §1

[10] = tested on: C. albicans 10231; assay: as above; format: cell-based, Candida albicans; settings: 18-20 hours at 37° C.
Summary of the method: as §1

[11] = tested on: C. albicans Wisc.; assay: as above; format: cell-based, Candida albicans; settings: 18-20 hours at 37° C.
Summary of the method: as §1

[12] = tested on: T. menta. 9129; assay: as above; format: cell-based, Trichophyton mentagrophytes; settings: 18-20 hours at 37° C.
Summary of the method: as §1

[13] = Acute oral toxicity (ALD50); format: in vivo; settings: mouse, in vivo, po, mice, read-out: 7-Day ALD50
Method: (§2) The acute oral toxicity (ALD50) of several representative examples was determined as follows: Groups of 3 young adult male Swiss-Webster strain albino mice were fasted approximately 4 hours before medication and then medicated once orally by stomach tube.

[14] = tested on: young adult male Swiss-Webster strain albino mice; assay: Acute oral toxicity (ALD50); format: in vivo
Method: as §2

[15] = 125 mg/kg oral, suspension in 1% G.T.
[16] = 250 mg/kg oral, suspension in 1% G.T.
[17] = 500 mg/kg oral, suspension in 1% G.T.
[18] = 1000 mg/kg oral, suspension in 1% G.T.
[19] = 125 mg/kg oral, aqueous solution
[20] = 250 mg/kg oral, aqueous solution
[21] = 500 mg/kg oral, aqueous solution
[22] = 1000 mg/kg oral, aqueous solution

| SMILES | MIC E. coli AB1932-1 [3] | MIC K. pneum. 39645 [5] | MIC P. mirab. MGH-1 [6] | MIC A. niger 16404 [9] | MIC C. albicans 10231 [10] | MIC C. albicans Wisc. [11] | MIC S. Aureus Smith [1] | MIC E. coli 100/B22 [2] | MIC E. coli Vogel [4] | MIC Ps. aerug. MGH-2 [7] | MIC S. pyogen. C203 [8] | MIC T. menta. 9129 [12] | LD50 at 168 h ([13]; aqueous solution) | Mortality 7 Days [14, 19] | Mortality 7 Days [14, 20] | Mortality 24 Hrs [14, 20] | Mortality 7 Days [14, 21] | Mortality 24 Hrs [14, 21] | Mortality 7 Days [14, 22] | Mortality 24 Hrs [14, 22] | also measured |
| --- | --- | --- | --- | --- | --- | --- | --- | --- | --- | --- | --- | --- | --- | --- | --- | --- | --- | --- | --- | --- | --- |
| CCCCCCCNc1cc[n+](CCCCCCCCCCCCCC[n+]2ccc(NCCCCCCC)cc2)cc1 [Example 2, 1,14-bis-[4-(heptylamino)-1-pyridinium]tetradecane dichloride] | 1.0 µg/mL | 3.9 µg/mL | 3.9 µg/mL | 7.8 µg/mL | 3.9 µg/mL | 7.8 µg/mL |  |  |  |  |  |  |  |  |  |  |  |  |  |  | MIC ([1]; Staphylococcus aureus, 20 h, read-out: MIC S. Aureus Smith): 1 µg/mL; MIC ([2]; Escherichia coli, 100/B22, 20 h, read-out: MIC E. coli 100/B22, 18-20 hours at 37° C.): 1 µg/mL; MIC ([4]; Escherichia coli, 20 h, read-out: MIC E. coli Vogel): 1.95 µg/mL; MIC ([7]; Pseudomonas aeruginosa, 20 h, read-out: MIC Ps. aerug. MGH-2): 1.95 µg/mL; MIC ([8]; Streptococcus pyogenes, 20 h, read-out: MIC S. pyogen. C203): 1 µg/mL; MIC ([12]; Trichophyton mentagrophytes, 20 h, read-out: MIC T. menta. 9129): 1 µg/mL; LD50 at 168 h ([13]; suspension in 1% gum tragacanth): 1000 mg/kg; Mortality 7 Days [14, 15]: 0/3; Mortality 24 Hrs [14, 15]: 0/3; Mortality 7 Days [14, 16]: 1/3; Mortality 24 Hrs [14, 16]: 0/3; Mortality 7 Days [14, 17]: 0/3; Mortality 24 Hrs [14, 17]: 0/3; Mortality 7 Days [14, 18]: 1/3; Mortality 24 Hrs [14, 18]: 0/3 |
| CCCCCCNc1cc[n+](CCCCCCCCCCCCCC[n+]2ccc(NCCCCCC)cc2)cc1 [Example 6] | 0.5 µg/mL | 1.0 µg/mL | 3.9 µg/mL | 3.9 µg/mL | 1.0 µg/mL | 1.95 µg/mL | 0.5 µg/mL | 0.5 µg/mL | 1.0 µg/mL | 3.9 µg/mL | 1.95 µg/mL | 0.5 µg/mL | 315 mg/kg | 1/3 | 1/3 | 0/3 | 2/3 | 2/3 | 3/3 | 3/3 | Mortality 24 Hrs [14, 19]: 1/3 |
| CCCCCCCNc1cc[n+](CCCCCCCCCC[n+]2ccc(NCCCCCCC)cc2)cc1 [Example 27] | 1.0 µg/mL | 1.0 µg/mL | 7.8 µg/mL | 3.9 µg/mL | 1.96 µg/mL | 1.0 µg/mL | 0.25 µg/mL | 0.5 µg/mL | 0.5 µg/mL | 7.8 µg/mL | 0.5 µg/mL | 1.0 µg/mL | 250 mg/kg | 1/3 | 0/3 | 0/3 | 1/3 | 1/3 | 3/3 | 1/3 | Mortality 24 Hrs [14, 19]: 0/3 |
| CCCCC(CC)CNc1cc[n+](CCCCCCCCCC[n+]2ccc(NCC(CC)CCCC)cc2)cc1 (centres unmarked) [Example 59, 1,10-Bis-[4-(2-ethylhexylamino)-1-pyridinium]-decane dichloride] | 1.0 µg/mL | 1.95 µg/mL | 7.8 µg/mL | 15.6 µg/mL | 1.95 µg/mL | 1.95 µg/mL | 0.25 µg/mL | 0.5 µg/mL | 1.0 µg/mL | 31.3 µg/mL | 1.0 µg/mL | 1.0 µg/mL | 750 mg/kg | 0/3 | 0/3 | 0/3 | 2/3 | 1/3 | 1/3 | 1/3 | Mortality 24 Hrs [14, 19]: 0/3 |
| CCCCCCCNc1cc[n+](CCCCCCCCC[n+]2ccc(NCCCCCCC)cc2)cc1 [Example 25, 1,9-Bis-[4-(heptylamino)-1-pyridinium]nonane dichloride] | 1.0 µg/mL | 1.95 µg/mL | 31.3 µg/mL | 1.95 µg/mL | 1.0 µg/mL | 1.0 µg/mL | 0.25 µg/mL | 1.0 µg/mL | 1.0 µg/mL | 31.3 µg/mL | 0.5 µg/mL | 1.0 µg/mL | 500 mg/kg |  | 1/3 | 1/3 | 1/3 | 1/3 | 3/3 | 3/3 | Autopsy, gross tissue changes ([14]; oral, 7 days, Example 25: 1000 mg./kg.): congestion of the glandular portion of the stomachs of two of the three mice was observed |
| CCCCCCCCNc1cc[n+](CCCCCCCC[n+]2ccc(NCCCCCCCC)cc2)cc1 [Example 12, 1,8-Bis-[4-(octylamino)-1-pyridinium]octane dichloride] | 1.0 µg/mL | 1.0 µg/mL | 3.9 µg/mL | 7.8 µg/mL | 1.0 µg/mL | 1.0 µg/mL | 0.25 µg/mL | 0.5 µg/mL | 1.0 µg/mL | 7.8 µg/mL | 0.5 µg/mL | 1.0 µg/mL | 750 mg/kg | 0/3 | 0/3 | 0/3 | 1/3 | 1/3 | 2/3 | 2/3 | Mortality 24 Hrs [14, 19]: 0/3 |
